Experimental findings from patent publication US6472526B1, “Imidazole derivatives having an inhibitory activity for farnesyl transferase and process for preparation thereof” (LG Chemical Ltd., priority 1997, dated 2002) are described below.

For assay [1], the target named is T1, Ras farnesyl transferase (Homo sapiens, UniProt P49354+P49356).
T1 construct: made in house
The assay can be described thus: In vitro inhibitory activity for Ras farnesyl transferase, H-Ras substrate. Conditions: recombinant farnesyl transferase 4.5 nM, Ras substrate protein 1.5 μM, tritium-farnesylpyrophosphate 0.15 μM, 30 minutes at 37° C.; read-out: H-Ras IC50. Format: biochemical. Here is the method:
In the present experiment, Ras farnesyl transferase produced by genetic recombination techniques according to the improved Pompliano's method (Pompliano et al., Biochemistry, 1992, 31, 3800) was used, and Ras substrate (Ras-CVLS) protein described in Korean Patent Appln. No. 97-14409 was used after it has been purified according to the known method (see, Chung et al., Biochimica et Biophysica Acta, 1992, 278, 1129).
The enzyme reaction was performed in 50 μl of 50 mM Sodium HEPES buffer solution containing 25 mM of potassium chloride, 25 mM of magnesium chloride, 10 mM of DTT and 50 μM of zinc chloride. 1.5 μM of Ras substrate protein, 0.15 μM of tritium-farnesylpyrophosphate and 4.5 nM of farnesyl transferase were used.
More specifically, in the initial step, farnesyl transferase was added to the above buffer solution, reaction was maintained for 30 minutes at 37° C. and then the reaction was stopped by adding 1 ml of ethanol solution containing 1M HCl. The formed precipitates were adsorbed to GF/B filter using Hopper harvestor(Hopper #FH 225V) for filter-binding, washed with ethanol, and then radioactivity of the dried filter was measured using LKB β counter. Enzyme titer was measured in the unsaturated state of substrate where the concentrations of Ras substrate protein and farnesyl transferase have quantitative relationship. The compound according to the present invention dissolved in dimethyl sulfoxide (DMSO) was added to the reaction solution in an amount of less than 5% of the total reaction solution, and then the enzyme inhibitory activity thereof was measured. The enzyme inhibitory activity was represented by percentage of the amount of farnesyl incorporated into the Ras substrate protein in the presence of the test compound to that in the absence of the test compound. IC50 of the test compound was defined as the concentration at which 50% of the enzyme activity was inhibited.

Assay [2] addresses T2, Ras farnesyl transferase (Rattus norvegicus, UniProt Q02293+Q04631).
T2 construct: endogenous in cells; host or cells: Rat2 fibroblasts transformed with H-Ras or with an H-Ras/K-Ras C-terminus fusion
The assay can be described thus: In vivo (cellular) inhibitory activity for Ras farnesyl transferase, Rat2 cell line which expresses C-Harvey-Ras protein. Format: cell-based. The note with it: Rat2 cell line expressing C-Harvey-Ras; concentration inhibiting 50% of farnesyl bonding of Ras protein; read-out: H-Ras CIC50. How it is done:
(§1) In the present experiment, Rat2 cell line which expresses C-Harvey-Ras protein having transforming activity and Rat2 cell line (Korean patent application No. 97-14409) which is transformed with fused protein of H-Ras substituted with polybasic lysine domain at C-terminus of K-Ras were used. The experiment was performed by the modified Declue's method (Declue. J. E. et al., Cancer Research, 1991, 51, 712). Hereinafter, the experimental method will be described in more detail.
(§2) 3×10^5 cells of transformed Rat2 fibroblast cell line were sprayed on 60 mm cell cultivation dish and cultivated for 48 hours in a cell incubator at 37° C. and after 50% or more of density was reached, it was treated with the test compounds. The compound according to the present invention dissolved in dimethylsulfoxide (DMSO) was used. 1% concentration of dimethylsulfoxide was used in both control and test groups. After 4 hours from the treatment with the compound, methionine labeled with 150 μCi of radioactive isotope [^35S] per 1 ml of medium was added and after cultivating for 20 hours, the cells were, washed with physiological saline water. The cells were lysed using 1 ml of cold cell lysis buffer solution (50 mM of Sodium HEPES buffer solution containing 5mM of magnesium chloride, 1 mM of DTT, 1% NP 40, 1 mM of EDTA, 1 mM of PMSF, 2 μM of leupeptin, 2 μM of pepstatin A and 2 μM of antipain) and the supernatant wherein the cells were lysed was obtained by high-velocity centrifugation of 12,000 g×5 minutes. The amount of radioisotope in the supernatant was measured and standardized to obtain a quantitative result in immunoprecipitation reaction and then, Y13-259, a monoclonal antibody specifically binding to Ras protein (Furth, M. E. et al., J. Virol, 1982, 43, 294) was added and reacted for 15 hours at 4° C. Protein A(combined with goat anti-murine immunoglobulin antibody)-agarose suspension was added to the solution and reacted for 1 hour at 4° C. and then, to remove the unspecific binding product, immunoprecipitates were washed with a buffer solution (50 mM Tris chloride buffer solution containing 50 mM of sodium chloride, 0.5% of sodium dioxycolate, 0.5% of NP 40 and 0.1% of SDS). The precipitates were added to a buffer solution for electrophoresis and boiled and then, electrophoresis was performed using 13.5% of SDS polyacrylamide gel. After electrophoresis, the gel was fixed and dried. Then, the gel was exposed to X-ray film, developed printed. From the result of the experiment, intensities of band of in combined with or without farnesyl of Ras protein were measured, the concentration of the test compound inhibiting 50% of farnesyl bonding was defined as […], an in vivo Ras farnesyl transferase inhibitory activity.

Assay [3] addresses T2, Ras farnesyl transferase. The assay is described as follows: In vivo (cellular) inhibitory activity for Ras farnesyl transferase, Rat2 cell line transformed with fused protein of H-Ras substituted with polybasic lysine domain at C-terminus of K-Ras. It counts as cell-based. The note with it: Rat2 cell line transformed with H-Ras fused with polybasic lysine domain of K-Ras C-terminus; concentration inhibiting 50% of farnesyl bonding; read-out: K-Ras CIC50. Here is the method:
as §1, §2

Assay [4] concerns the target T1, Ras farnesyl transferase. The assay is described as follows: In vitro inhibitory activity for Ras farnesyl transferase, K-Ras substrate. It counts as biochemical. Conditions: in vitro farnesyl transferase assay, K-Ras; read-out: K-Ras IC50.

In the case of “1-[1-(4-Methoxybenzyl)-1H-imidazol-5-yl]methyl-3-[N-(2-methoxyethyl)-N-methyl]carbamoyl-4-(naphthalen-1-yl)-1H-pyrrole [Compound 129]”, the IC50 at Ras farnesyl transferase [1] is 3 nM; on Ras farnesyl transferase [2], 25 nM; at Ras farnesyl transferase [3], 10000 to 50000 nM; at Ras farnesyl transferase [4], 4 nM.
The corresponding values for `COCCN(C)C(=O)c1cn(Cc2cncn2C(C)c2ccccc2)cc1-c1cccc2ccccc12` (stereo in doubt) [Compound 8, 3-[N-(2-Methoxyethyl)-N-methyl]carbamoyl-1-[1-((R)-α-methylbenzyl)-1H-imidazol-5-ylmethyl]-4-(naphthalen-1-yl)-1H-pyrrole] are 4 nM, 25 nM, 10000 to 50000 nM and 8 nM.
As to `CC(c1ccccc1)n1cncc1Cn1cc(C(=O)N2CCOCC2)c(-c2cccc3ccccc23)c1` (stereo in doubt) [Compound 9, 1-[1-((R)-α-Methylbenzyl)-1H-imidazol-5-ylmethyl]-3-(morpholin-4-yl)carbonyl-4-(naphthalen-1-yl)-1H-pyrrole], the IC50 at Ras farnesyl transferase [1] is 5 nM; at Ras farnesyl transferase [2], 25 nM; on Ras farnesyl transferase [3], 10000 to 50000 nM; at Ras farnesyl transferase [4], 6.6 nM.
For the compound `CC(c1ccccc1)n1cncc1Cn1cc(C(=O)N2CCN(C)CC2)c(-c2cccc3ccccc23)c1` (stereo in doubt) [Compound 10, 1-[1-((R)-α-Methylbenzyl)-1H-imidazol-5-ylmethyl]-3-(4-methylpiperazin-1-yl)carbonyl-4-(naphthalen-1-yl)-1H-pyrrole], the IC50 on Ras farnesyl transferase [1] is 0.85 nM; at Ras farnesyl transferase [2], 12.5 nM; at Ras farnesyl transferase [3], 10000 to 50000 nM; on Ras farnesyl transferase [4], 5 nM.
In the same order, the values of `COC(=O)C(CCSC)NC(=O)c1cn(Cc2cncn2Cc2ccc(C#N)cc2)cc1-c1cccc2ccccc12` (stereo in doubt) [Compound 100, (S)-1-[1-(4-Cyanobenzyl)-1H-imidazol-5-yl]methyl-3-[N-(1-methoxycarbonyl-3-methylthio)propyl]carbamoyl-4-(naphthalen-1-yl)-1H-pyrrole] are 1800 nM, more than 1000 nM, more than 20000 nM and 100 to 10000 nM.
As for `O=C(c1cn(Cc2cncn2Cc2ccc3c(c2)OCO3)cc1-c1cccc2ccccc12)N1CCOCC1` [Compound 2, 1-[1-(3,4-Methylenedioxybenzyl)-1H-imidazol-5-ylmethyl]-3-(morpholin-4-yl)carbonyl-4-(naphthalen-1-yl)-1H-pyrrole], the IC50 at Ras farnesyl transferase [1] was 0.85 nM; on Ras farnesyl transferase [2], 25 nM; on Ras farnesyl transferase [3] it was 10000 to 50000 nM; at Ras farnesyl transferase [4], 2 nM.
In the same order, the values of `CN1CCN(C(=O)c2cn(Cc3cncn3Cc3ccc4c(c3)OCO4)cc2-c2cccc3ccccc23)CC1` [Compound 3, 1-[1-(3,4-Methylenedioxybenzyl)-1H-imidazol-5-ylmethyl]-3-(4-methylpiperazin-1-yl)carbonyl-4-(naphthalen-1-yl)-1H-pyrrole] are 1 nM, 25 nM, 15000 nM and 2.4 nM.
The corresponding values for `CN(C)CCN(C)C(=O)c1cn(Cc2cncn2Cc2ccc3c(c2)OCO3)cc1-c1cccc2ccccc12` [Compound 4, 3-{N-[2-(N,N-Dimethylamino)ethyl]-N-methyl}carbamoyl-1-[1-(3,4-methylendioxybenzyl)-1H-imidazol-5-ylmethyl]-4-(naphthalen-1-yl)-1H-pyrrole] are 47 nM, 100 to 1000 nM, 10000 to 100000 nM and 750 nM.
In the same order, the values of `COCCN(C)C(=O)c1cn(Cc2cncn2Cc2cccc3ccccc23)cc1-c1cccc2ccccc12` [Compound 5] are 3.7 nM, 25 nM, 10000 to 50000 nM and 8.5 nM.
`O=C(c1cn(Cc2cncn2Cc2cccc3ccccc23)cc1-c1cccc2ccccc12)N1CCOCC1` [Compound 6]: the IC50 was 1 nM on Ras farnesyl transferase [1], 25 nM at Ras farnesyl transferase [2], 10000 to 50000 nM at Ras farnesyl transferase [3] and 2 nM on Ras farnesyl transferase [4].
In the case of `Cn1cncc1Cn1cc(C(=O)N2CCOCC2)c(-c2cccc3ccccc23)c1` [Compound 99, 1-(1-Methyl-1H-imidazol-5-yl)methyl-3-(morpholin-4-yl)carbonyl(naphthalen-1-yl)-1H-pyrrole], the IC50 is 100 nM on Ras farnesyl transferase [2] and more than 50000 nM on Ras farnesyl transferase [3].
Regarding `COCCN(C)C(=O)c1nc(Cc2cncn2Cc2ccc(Cl)cc2)sc1-c1cccc2ccccc12` [Compound 147, 2-[1-(4-Chlorobenzyl)-1H-imidazol-5-ylmethyl]-4-[N-(2-methoxy)ethyl-N-methylcarbamoyl]-5-(naphthalen-1-yl)thiazole], the IC50 turned out to be 2 nM at Ras farnesyl transferase [1], 50 nM at Ras farnesyl transferase [2] and 30 nM on Ras farnesyl transferase [4].
The corresponding values for `COCCN(C)C(=O)c1cn(Cc2cncn2CC2CCN(C(=O)OCc3ccccc3)CC2)nc1-c1cccc2ccccc12` [Compound 152, 1-[1-(1-Benzyloxycarbonyl-piperidin-4-ylmethyl)-1H-imidazol-5-ylmethyl]-4-[N-(2-methoxyethyl)-N-methyl]carbamoyl-3-(naphthalen-1-yl)-1H-pyrazole] are 23 nM, 100 nM and 70 nM.
In the same order, the values of `COCCN(C)C(=O)c1cn(Cc2cncn2CC2CCN(C(=O)OC)CC2)nc1-c1cccc2ccccc12` [Compound 153, 1-[1-(1-Methoxycarbonylpiperidin-4-ylmethyl)-1H-imidazole-5-ylmethyl]-4-[N-(2-methoxyethyl)-N-methyl]-carbamoyl-3-(naphthalen-1-yl)-1H-pyrazole] are 30 nM, 150 nM and 100 nM.
The corresponding values for `COCCN(C)C(=O)c1cn(Cc2cncn2Cc2ccc(Br)cc2)nc1-c1cccc2ccccc12` [Compound 154, 1-[1-(4-Bromobenzyl)-1H-imidazol-5-ylmethyl]-4-[N-(2-methoxyethyl)-N-methyl]-carbamoyl-3-(naphthalen-1-yl)-1H-pyrazole] are 30 nM, 150 nM and 200 nM.
Regarding `COC(=O)N1CCC(Cn2cncc2Cn2cc(C(=O)N3CCOCC3)c(-c3cccc4ccccc34)n2)CC1` [Compound 159], the IC50 was determined as 300 nM at Ras farnesyl transferase [1], 1200 nM on Ras farnesyl transferase [2] and 4000 nM at Ras farnesyl transferase [4].
